What is called Ki is the equilibrium dissociation constant of an inhibitor or competing ligand from its target. A high value points to lower affinity. One may read the IC50 as the concentration at which inhibition is half-maximal. Read a low IC50 as inhibition by little substance. By pIC50 is commonly meant −log10 of the IC50, conventionally taken in molar units. A higher pIC50 goes with a low IC50. The inhibition is the percentage by which the read-out fell short of the control. A higher inhibition goes with a response far below the control.

From ChEMBL document CHEMBL1137783 (J Med Chem, 2009) come the findings set out here.

Sequence of Voltage-gated inwardly rectifying potassium channel KCNH2 (Q12809 whole entry): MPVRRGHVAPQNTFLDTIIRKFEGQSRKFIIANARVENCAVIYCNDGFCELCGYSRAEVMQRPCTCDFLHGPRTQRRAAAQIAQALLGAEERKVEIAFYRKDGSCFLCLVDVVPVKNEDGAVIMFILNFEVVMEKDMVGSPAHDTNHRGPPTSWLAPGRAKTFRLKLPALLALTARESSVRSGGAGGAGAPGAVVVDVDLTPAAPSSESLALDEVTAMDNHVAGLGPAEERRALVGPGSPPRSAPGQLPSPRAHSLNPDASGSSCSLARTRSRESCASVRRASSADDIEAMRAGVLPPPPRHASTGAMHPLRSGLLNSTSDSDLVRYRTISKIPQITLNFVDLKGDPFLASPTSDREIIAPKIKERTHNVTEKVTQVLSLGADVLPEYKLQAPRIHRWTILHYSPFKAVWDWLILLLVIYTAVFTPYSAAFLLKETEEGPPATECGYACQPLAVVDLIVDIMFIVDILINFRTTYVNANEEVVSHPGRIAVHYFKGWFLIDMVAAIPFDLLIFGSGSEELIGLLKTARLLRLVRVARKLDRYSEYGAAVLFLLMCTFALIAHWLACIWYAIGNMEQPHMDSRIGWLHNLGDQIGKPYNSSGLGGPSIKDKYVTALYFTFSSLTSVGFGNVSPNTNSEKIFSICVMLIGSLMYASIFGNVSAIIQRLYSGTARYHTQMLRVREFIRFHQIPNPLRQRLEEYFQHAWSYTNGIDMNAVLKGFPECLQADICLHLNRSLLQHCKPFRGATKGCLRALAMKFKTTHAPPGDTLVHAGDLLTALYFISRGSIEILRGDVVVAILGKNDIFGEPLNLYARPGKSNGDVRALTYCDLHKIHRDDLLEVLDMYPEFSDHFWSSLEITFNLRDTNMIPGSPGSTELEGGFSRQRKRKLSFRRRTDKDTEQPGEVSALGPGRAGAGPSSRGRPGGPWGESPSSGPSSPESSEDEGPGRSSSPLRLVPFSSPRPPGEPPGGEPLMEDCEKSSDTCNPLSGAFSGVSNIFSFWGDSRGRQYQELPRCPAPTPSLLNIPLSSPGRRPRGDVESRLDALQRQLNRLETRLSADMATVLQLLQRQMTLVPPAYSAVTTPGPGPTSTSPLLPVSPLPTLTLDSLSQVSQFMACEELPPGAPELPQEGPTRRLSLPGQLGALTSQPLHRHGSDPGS

The first series has as its target Voltage-gated inwardly rectifying potassium channel KCNH2 (Homo sapiens, UniProt Q12809). Put plainly: (§1) Inhibition of human ERG channel.
Details: not given
`Fc1ccc2[nH]c(-c3ccccc3)c([C@@H]3CNCC[C@H]3F)c2c1` gave a Ki of 7000 nM.
`C[N+]1([O-])CCN(C2=Nc3cc(Cl)ccc3Nc3ccccc32)CC1` had an IC50 of 133000 nM.
`Cc1cc2c(s1)Nc1ccccc1N=C2N1CCN(C)CC1` [OLANZAPINE] returned an IC50 of 231 nM.
For `c1ccc(-c2[nH]c3ccccc3c2C2CC3CCC(C2)N3)cc1` (centres undefined), the inhibition constant Ki is 18 nM.
For the compound `CC(=O)Nc1cccc(N2CCN(CCCCNS(=O)(=O)CC3CCCCC3)CC2)c1` [NALUZOTAN], half-maximal inhibition (IC50) was put at 3800 nM.
Take `CN1Cc2cncn2Cc2ccc(C#N)c(c2)Oc2ccc3c(c2)[C@@H](CC3)N2CC[C@@H]1C2=O`: 2600 nM corresponded to half-maximal inhibition (IC50).

The same series, now with this note: human.
Compound `C[N+]1([O-])CCN(C2=Nc3cc(Cl)ccc3Nc3ccccc32)CC1` gave a pIC50 of 3.875.
Consider `Cc1cc2c(s1)Nc1ccccc1N=C2N1CCN(C)CC1` [OLANZAPINE], for which the pIC50 was 6.636.

A further series deals with T1, hERG (KCNH2) (Homo sapiens, UniProt Q12809). The description is as §1. Particulars: human.
T1 sequence (Q12809 whole entry): as above
`Fc1ccc2c([C@@H]3CNCC[C@H]3F)c(-c3ccc4ccccc4c3)[nH]c2c1` had a Ki of 500 nM.
In turn, `Fc1ccc2c([C@@H]3CNCC[C@H]3F)c(-c3ccsc3)[nH]c2c1` had a Ki of 1500 nM.
Same read-out and setting: in the case of `Fc1ccc(-c2[nH]c3cc(F)ccc3c2C2CCCNC2)cc1` (centres undefined) it was 1300 nM; in that of `CN1CCCC(c2c(-c3ccccc3)[nH]c3ccccc23)C1` (centres undefined), 9600 nM.
Regarding `Fc1ccc2c([C@@H]3CNCC[C@H]3F)c(-c3cccc4ccccc34)[nH]c2c1`, the Ki was 110 nM.
On to `c1ccc(-c2[nH]c3ccccc3c2C2CCNCC2)cc1`, for which affinity was put at a Ki of 5700 nM.
On the same count and under the same terms, for `Fc1ccc(-c2[nH]c3cc(F)ccc3c2[C@@H]2CNCC[C@H]2F)cc1` the value was 1600 nM.

A further series has as its target T1, hERG (KCNH2). The series can be described thus: Inhibition of human ERG channel at 300 uM.
Details: not given
For `Cc1nnc(C(C)C)n1C1CC2CCC(C1)N2CC[C@H](NC(=O)CCC(F)(F)F)c1ccccc1` (some centres undefined), the inhibition at 300 µM is 14%.
`Cc1nnc(C(C)C)n1C1CC2CCC(C1)N2CC[C@H](NC(=O)C1CCCC1)c1ccccc1` (some centres undefined) had an inhibition at 300 µM of 18%.
As to `Cc1nnc(C(C)C)n1C1CC2CCC(C1)N2CC[C@H](NC(=O)C1CCC1)c1ccccc1` (some centres undefined), the inhibition at 300 µM is 30%.

The next series deals with T1, hERG (KCNH2). The series can be described thus: Inhibition of human ERG channel at 3 uM.
Details: not given
The compound `CC(C)(CO)NC(=O)[C@H]1CC[C@H](c2nc(-c3cccc(C(F)(F)F)c3)c[nH]2)CC1` yielded an inhibition at 3 µM of 6%.
